Test results published in patent US7368578B2, “Five-membered heterocyclic compounds” (Takeda Pharmaceutical Company Limited, priority 2002, dated 2008).

Work on `COc1cc(COc2nn(-c3ccccc3)cc2-c2cnco2)ccc1OCc1nc(-c2ccco2)oc1C` [Example 107, 2-(2-furyl)-4-{[2-methoxy-4-({[4-(1,3-oxazol-5-yl)-1-phenyl-1H-pyrazol-3-yl]oxy}methyl)phenoxy]methyl}-5-methyl-1,3-oxazole] yielded a melting point of 153 to 154 °C.
In the case of `CCOP(=O)(/C=C/c1cn(-c2ccccc2)nc1OCc1ccc(OCc2sc(-c3ccccc3)nc2C)c(OC)c1)OCC`, the melting point is reported as 113 to 114 °C.
In the case of `COc1cc(COc2nn(-c3ccccc3)cc2CCO)ccc1OCc1nc(-c2ccco2)oc1C` [Example 104, 2-{3-[(4-{[2-(2-furyl)-5-methyl-1,3-oxazol-4-yl]methoxy}-3-methoxybenzyl)oxy]-1-phenyl-1H-pyrazol-4-yl}ethanol], the melting point is reported as 123 to 124 °C.
Work on `CCOP(=O)(/C=C\c1cn(-c2ccccc2)nc1OCc1ccc(OCc2nc(-c3cccc(C(=O)O)c3)oc2C)c(OC)c1)OCC` yielded a melting point of 158 to 159 °C.
In the case of `CCOP(=O)(/C=C/c1cn(-c2ccccc2)nc1OCc1ccc(OCc2nc(-c3ccc(C(=O)O)s3)oc2C)c(OC)c1)OCC`, the melting point is reported as 165 to 166 °C.
With `COc1cc(COc2nn(-c3ccccc3)cc2C=O)ccc1OCc1sc(-c2ccccc2)nc1C` [Example 219, 3-({3-methoxy-4-[(4-methyl-2-phenyl-1,3-thiazol-5-yl)methoxy]benzyl}oxy)-1-phenyl-1H-pyrazole-4-carbaldehyde] the melting point was 171 to 172 °C.
In the case of `CCOC(=O)Cc1ccc(-c2nc(COc3ccc(COc4nn(-c5ccccc5)cc4/C=C\c4csc(CC)n4)cc3OC)c(C)o2)cc1` [Example 338, ethyl {4-[4-({4-[({4-[(Z)-2-(2-ethyl-1,3-thiazol-4-yl)ethenyl]-1-phenyl-1H-pyrazol-3-yl}oxy)methyl]-2-methoxyphenoxy}methyl)-5-methyl-1,3-oxazol-2-yl]phenyl}acetate], the melting point is reported as 136 to 137 °C.
Compound `COc1cc(COc2nn(C)cc2C(C)O)ccc1OCc1nc(-c2ccccc2)oc1C` (stereo not drawn) [Example 271, 1-(3-{[3-methoxy-4-(5-methyl-2-phenyl-1,3-oxazol-4-ylmethoxy)benzyl]oxy}-1-methyl-1H-pyrazol-4-yl)ethanol] has a melting point of 94 to 95 °C.
`Cc1oc(-c2ccccc2)nc1COc1ccc(OCc2oc(-c3ccccc3)nc2C=O)cc1` [Example 304, 5-({4-[(5-methyl-2-phenyl-1,3-oxazol-4-yl)methoxy]phenoxy}methyl)-2-phenyl-1,3-oxazole-4-carbaldehyde] showed a melting point of 127 to 128 °C.
With `CCOP(=O)(/C=C/c1cn(-c2ccccc2)nc1OCc1ccc(OCc2nc(-c3ccc(C)c(C(=O)O)c3)oc2CC)c(OC)c1)OCC` the melting point was 165 to 166 °C.
For `CCc1nc(/C=C/c2cn(-c3ccccc3)nc2OCc2ccc(OCc3nc(-c4ccc(C(=O)O)s4)oc3C)c(OC)c2)cs1` [Example 331, 5-[4-({4-[({4-[(E)-2-(2-ethyl-1,3-thiazol-4-yl)ethenyl]-1-phenyl-1H-pyrazol-3-yl}oxy)methyl]-2-methoxyphenoxy}methyl)-5-methyl-1,3-oxazol-2-yl]thiophene-2-carboxylic acid], the melting point was 150 to 151 °C.
With `COc1cc(COc2nn(-c3ccccc3)cc2/C=C/C2=NCCO2)ccc1OCc1nc(-c2ccco2)oc1C` [Example 99, 4-({4-[({4-[(E)-2-(4,5-dihydro-1,3-oxazol-2-yl)ethenyl]-1-phenyl-1H-pyrazol-3-yl}oxy)methyl]-2-methoxyphenoxy}methyl)-2-(2-furyl)-5-methyl-1,3-oxazole] the melting point was 162 to 163 °C.
`CCOC(=O)Cc1ccc(-c2nc(COc3ccc(COc4nn(-c5ccccc5)cc4/C=C/c4coc(C(C)C)n4)cc3OC)c(C)o2)cc1` [Example 367, ethyl {4-[4-({4-[({4-[(E)-2-(2-isopropyl-1,3-oxazol-4-yl)ethenyl]-1-phenyl-1H-pyrazol-3-yl}oxy)methyl]-2-methoxyphenoxy}methyl)-5-methyl-1,3-oxazol-2-yl]phenyl}acetate] showed a melting point of 106 to 108 °C.
`COC(=O)COc1cccc(-c2nc(COc3ccc(COc4nn(-c5ccccc5)cc4C=O)cc3OC)c(C)o2)c1` [Example 235, methyl (3-{4-[(4-{[(4-formyl-1-phenyl-1H-pyrazol-3-yl)oxy]methyl}-2-methoxyphenoxy)methyl]-5-methyl-1,3-oxazol-2-yl}phenoxy)acetate] showed a melting point of 107 to 109 °C.
With `COC(=O)c1cccc(-c2nc(COc3ccc(CON4CC(C=O)=CN4c4ccccc4)cc3OC)c(C)o2)c1` [Example 208, methyl 3-{4-[(4-{[(4-formyl-1-phenyl-1H-pyrazol-2-yl)oxy]methyl}-2-methoxyphenoxy)methyl]-5-methyl-1,3-oxazol-2-yl}benzoate] the melting point was 164 to 165 °C.
`CCOC(=O)c1ccc(-c2nc(COc3ccc(COc4nn(-c5ccccc5)cc4/C=C\c4csc(CC)n4)cc3OC)c(C)o2)s1` [Example 330 (Z form), ethyl 5-[4-({4-[({4-[(Z)-2-(2-ethyl-1,3-thiazol-4-yl)ethenyl]-1-phenyl-1H-pyrazol-3-yl}oxy)methyl]-2-methoxyphenoxy}methyl)-5-methyl-1,3-oxazol-2-yl]thiophene-2-carboxylate] gave a melting point of 118 to 119 °C.
Work on `CCOP(=O)(/C=C\c1cn(-c2ccccc2)nc1OCc1ccc(OCc2nc(-c3cccc(C(=O)OC)c3)oc2C)c(OC)c1)OCC` yielded a melting point of 112 to 113 °C.
For `CCc1cc(COc2nn(Cc3ccccc3)cc2C(=O)O)ccc1OCc1nc(-c2ccco2)oc1C` [Example 69, 1-benzyl-3-[(3-ethyl-4-{[2-(2-furyl)-5-methyl-1,3-oxazol-4-yl]methoxy}benzyl)oxy]-1H-pyrazole-4-carboxylic acid], the melting point was 173 to 174 °C.
Work on `CCOP(=O)(/C=C/c1cn(CCO)nc1OCc1ccc(OCc2nc(-c3ccco3)oc2C)c(OC)c1)OCC` yielded a melting point of 95 to 96 °C.
For `COc1cc(COc2nn(C)cc2C(=O)N(C)OC)ccc1OCc1nc(-c2ccccc2)oc1C` [Example 269, N-methoxy-N-methyl-3-{[3-methoxy-4-(5-methyl-2-phenyl-1,3-oxazol-4-ylmethoxy)benzyl]oxy}-1-methyl-1H-pyrazole-4-carboxamide], the melting point was 138 to 139 °C.
With `Cc1oc(-c2ccccc2)nc1COc1ccc(OCc2nc(-c3ccccc3)oc2CO)cc1` [Example 91, [4-({4-[(5-methyl-2-phenyl-1,3-oxazol-4-yl)methoxy]phenoxy}methyl)-2-phenyl-1,3-oxazol-5-yl]methanol] the melting point was 157 to 158 °C.
In the case of `COc1cc(COc2nn(-c3ccccc3)cc2/C=C/C(=O)NNC(C)=O)ccc1OCc1nc(-c2ccco2)oc1C` [Example 189, (2E)-N′-acetyl-3-{3-[(4-{[2-(2-furyl)-5-methyl-1,3-oxazol-4-yl]methoxy}-3-methoxybenzyl)oxy]-1-phenyl-1H-pyrazol-4-yl}-2-propenohydrazide], the melting point is reported as 221 to 222 °C.
With `COc1cc(COc2nn(-c3ccccc3)cc2/C=C\S(C)(=O)=O)ccc1OCc1nc(-c2ccco2)oc1C` [Example 131, 2-(2-furyl)-4-({2-methoxy-4-[({4-[(Z)-2-(methylsulfonyl)ethenyl]-1-phenyl-1H-pyrazol-3-yl}oxy)methyl]phenoxy}methyl)-5-methyl-1,3-oxazole] the melting point was 158 to 159 °C.
With `CCCc1nnc(CCc2cc(OCc3ccc(OCc4nc(-c5ccccc5)oc4C)c(OC)c3)nn2-c2ccccc2)o1` [Example 123, 2-{2-[3-({3-methoxy-4-[(5-methyl-2-phenyl-1,3-oxazol-4-yl)methoxy]benzyl}oxy)-1-phenyl-1H-pyrazol-5-yl]ethyl}-5-propyl-1,3,4-oxadiazole] the melting point was 85 to 86 °C.
`COc1cc(COc2nn(C)cc2CO)ccc1OCc1nc(-c2ccccc2)oc1C` [Example 266, (3-{[3-methoxy-4-(5-methyl-2-phenyl-1,3-oxazol-4-ylmethoxy)benzyl]oxy}-1-methyl-1H-pyrazol-4-yl)methanol] gave a melting point of 108 to 109 °C.
`CCOP(=O)(/C=C/c1cn(-c2ccccc2)nc1OCc1ccc(OCc2nc(-c3ccccc3)sc2C)c(OC)c1)OCC` showed a melting point of 110 to 111 °C.
`Cc1oc(-c2ccccc2)nc1COc1ccc2c(-c3ccccc3)c(COc3nn(-c4ccccc4)cc3CO)oc2c1` [Example 66, [3-({6-[(5-methyl-2-phenyl-1,3-oxazol-4-yl)methoxy]-3-phenyl-1-benzofuran-2-yl}methoxy)-1-phenyl-1H-pyrazol-4-yl]methanol] showed a melting point of 118 to 119 °C.
Compound `CCOC(=O)c1cn(Cc2ccccc2)nc1OCc1ccc(OCc2nc(-c3ccco3)oc2C)cc1OC` [Example 52, ethyl 1-benzyl-3-[(4-{[2-(2-furyl)-5-methyl-1,3-oxazol-4-yl]methoxy}-2-methoxybenzyl)oxy]-1H-pyrazole-4-carboxylate] has a melting point of 137 to 138 °C.
In the case of `COc1cc(COc2nn(-c3ccccc3)cc2C(=O)O)ccc1OCc1nc(-c2ccco2)oc1C` [Example 73, 3-[(4-{[2-(2-furyl)-5-methyl-1,3-oxazol-4-yl]methoxy}-3-methoxybenzyl)oxy]-1-phenyl-1H-pyrazole-4-carboxylic acid], the melting point is reported as 184 to 185 °C.
`COc1cc(COc2nn(C)cc2C=O)ccc1OCc1nc(-c2ccccc2)oc1C` [Example 267, 3-{[3-methoxy-4-(5-methyl-2-phenyl-1,3-oxazol-4-ylmethoxy)benzyl]oxy}-1-methyl-1H-pyrazole-4-carbaldehyde] showed a melting point of 123 to 124 °C.
In the case of `CCOP(=O)(/C=C/c1cn(-c2ccccc2)nc1OCc1ccc(OCc2cn(-c3ccccn3)nc2C)c(OC)c1)OCC`, the melting point is reported as 103 to 104 °C.
In the case of `CCOP(=O)(/C=C/c1cn(-c2ccccc2)nc1OCc1ccc(OCc2nc(N3CCCCC3)sc2C)c(OC)c1)OCC`, the melting point is reported as 95 to 96 °C.
In the case of `Cc1oc(-c2ccco2)nc1COc1ccc(COc2nn(Cc3ccccc3)cc2C=O)cc1Cl` [Example 37, 1-benzyl-3-[(3-chloro-4-{[2-(2-furyl)-5-methyl-1,3-oxazol-4-yl]methoxy}benzyl)oxy]-1H-pyrazole-4-carbaldehyde], the melting point is reported as 158 to 159 °C.
In the case of `Cc1oc(-c2ccco2)nc1COc1ccc(COc2nn(-c3ccccc3)cc2C=O)cn1` [Example 164, 3-[(6-{[2-(2-furyl)-5-methyl-1,3-oxazol-4-yl]methoxy}pyridin-3-yl)methoxy]-1-phenyl-1H-pyrazole-4-carbaldehyde], the melting point is reported as 122 to 123 °C.
Work on `COc1cc(COc2nn(-c3ccccc3)cc2C(C[N+](=O)[O-])C[N+](=O)[O-])ccc1OCc1nc(-c2ccco2)oc1C` yielded a melting point of 126 to 127 °C.
In the case of `CCOP(=O)(/C=C/c1nc(-c2ccccc2)oc1COc1ccc(OCc2nc(-c3ccccc3)oc2C)cc1)OCC`, the melting point is reported as 124 to 125 °C.
